Assay results as given in patent publication US9228999B2, “Method for screening active agents that stimulate the expression of CERT to improve the skin's barrier function” (CHANEL PARFUMS BEAUTE, priority 2009, dated 2016).

Test system: CERT mRNA
Experiment: Test for screening active agents by real-time RT-PCR: expression of CERT mRNA in keratinocytes
Type: cell-based
Conditions: normal human keratinocytes (neonatal foreskin), 24 hours incubation, concentration 0.0005%, number of times of increase vs untreated (1.0), normalized to RPLPO
Description: The effect of two active agents on the expression of the mRNA of CERT was evaluated in keratinocytes. Keratinocytes derived from neonatal foreskins (Cascade Biologics/Invitrogen, Portland, Oreg., USA) are inoculated in 6-well plates and cultured in keratinocyte growth culture medium (Epilife, Invitrogen), i.e. a modified culture medium supplemented with EDGS. After culturing for 24 hours in an incubator at 37° C., the 70%-80% confluent cells are washed with PBS buffer (Invitrogen) and incubated with basic medium (Epilife, Invitrogen) containing the active agent to be tested, for 24 hours and in triplicate, at increasing concentrations. After studying the cytotoxicity of the active agent, its activity is evaluated. To quantify the expression of CERT messenger RNA in a treated sample relative to an untreated sample, first the RNA is isolated using the RNeasy reagent kit (Qiagen, CA, USA) and then quantified using the QuantIt kit (Invitrogen). Reverse transcription is performed using the gene Amp RNA PCR kit (Applied Biosystems) according to the manufacturer's recommendations. The real-time PCR measurement is performed using the iCYCLER IQ machine (Bio-Rad, CA, USA) with Taqman probes. […] The relative quantification of the expression of the target gene is performed using the Pfaffl mathematical model (Pfaffl, MW, Nucleic Acids Res. 29(9), p. […], 2001). […]

Question: Which “Stimulation of CERT mRNA” value does the source give for O=C(O)CCCC[C@@H]1CCSS1 (racemic) [Lipoic acid] here?
Answer: The value was 2.0.

Question: With Oc1ccc(C=Cc2cc(O)cc(O)c2)cc1 [Resveratrol] as the molecule, how does the “Stimulation of CERT mRNA” value read?
Answer: The value was 2.4.
